These results are taken from patent US20250263404A1, “AMINOPYRIDINES AS ACTIVATORS OF PI3 KINASE” (UCL Business Ltd, priority 2021, published 2025).

The test system of assay [1] is PIP3 production in A549 cells. Description: TIRF microscopy of PIP3 reporter in A549 cells. Type of assay: cell-based, human. The source says:
Class I PI3Ks convert the PtdIns(4,5)P2 lipid in the plasma membrane to PtdIns(3,4,5)P3 (or PIP3) which is converted to PtdIns(3,4)P2 by the action of 5-phosphatases. The inventors therefore tested whether stimulation of cells with 1938 led to the generation of PIP3 and PI(3,4)P2 using live imaging in cells expressing fluorescent biosensors that selectively bind these lipids. […] This PIP3 peak was followed by the generation of membrane-associated PI(3,4)P2 (FIG. 3aiii), with a timing in line with the known mechanism of cellular generation of PI(3,4)P2 from PIP3 by the action of 5-phosphatases. Similar kinetics of PIP3 and PI(3,4)P2 production have previously been reported in HeLa cells stimulated with insulin. […]
Image analyses of total reporter intensities were performed with the Fiji open source image analysis package. The region of interest (ROI) corresponding to the footprint of the individual cell across time points were defined using minimal intensity projection to select only pixels present across all time points, following prior subtraction of camera noise (rolling ball method, radius=500 pixels) and xy drift correction, intensity levels over time were measured. […] All other quantifications were performed using the open source software R/RStudio. […]

Assay [2] concerns pAKT^S473 in mouse embryonic fibroblasts (MEFs). Description: pAKT S473 by Wes western blotting in MEFs. Type of assay: cell-based. The text has this:
The inventors next monitored the activation of AKT, the best-known PI3K effector stimulated by PIP3/PI(3,4)P2 production in cells. […] As previously reported, PI3Kα-null MEFs still respond to insulin, but now in a PI3Kβ-dependent manner, as shown by sensitivity of insulin-stimulated pAKT^S473 to the PI3Kβ-selective inhibitor TGX-221 (FIG. 3b). […] Similar observations were made for mTORC1 pathway activation, as measured by S6 (Ser240/44) and 4EBP1 (Ser65) phosphorylation (FIG. 3e). […] Experiments with A549 cells and MEFs were performed separately using slightly different protocols. Briefly, A549 cells were seeded at 200,000 cells per well in 24-well plates in DMEM (10% FBS+1% P/S) and allowed to adhere overnight. The next day, cells were washed once with PBS before addition of serum-free DMEM for 24 h. On the day of treatment, cells were incubated in fresh serum-free DMEM prior to treatment. […]
(In general: Immunoblotting shows a protein as a band on a membrane.)

`CCN1CCN(c2ccc(Nc3cc(Nc4cccc5c4N(C(C)=O)CC5)ccn3)cc2)CC1` [Example 1938]: the “PIP3 signal in PIK3CA-null A549 cells” value in assay [1] (PIK3CA-null A549 cells) is recorded as “did not increase”. Also, the “time to plasma membrane-associated PIP3 production” value in assay [1] (serum-starved A549 cells) is given as “less than 3 min”. Moreover, the EC50 (usually the concentration needed to bring the measured effect to its halfway point) in assay [2] (Mus musculus, Fibroblast, 0.25 h, read-out: EC50 for induction of pAKT, MEFs, 15 min treatment) was in the range of 2 to 4 µM. In assay [2] (PI3Kα-null MEFs, 15 min), the “pAKT^S473 in PI3Kα-null MEFs” value was “no pAKT^S473 phosphorylation was observed”.
